Source: US11246929B2, “Combination of a protein kinase inhibitor and an additional chemotherapeutic agent” (Merck Patent GmbH, priority 2016, dated 2022)
Several values for one entry are separate records, joined by “and”; a condition that tells them apart may be missing. Identical values can stand only once. Like-named read-outs stand apart in the source and are kept apart here. Blank lines part the entries; values can stand above or below the compound they belong to.

Experiments:
NCI-H460 = experiment: AlamarBlue viability assay; assay type: cell-based, human
Method: (§1) Compound 1 in combination with etoposide or cisplatin was tested in the following cancer cell lines for inhibition of tumor cells: human lung carcinoma (NCI-H460), human glioblastoma (MO59K and MO59J), and human squamous cell carcinoma pharynx (FaDu). Details of the assay protocol and material utilized are set forth below.
(§2) Cells were plated in a volume of 180 μl/well in 96-well plates: (FaDu: 1000 cells/well (168 h); NCI-H460 3000 cells/well (72 h) and 1000 cells/well (168 h); MO59J: 5000 cells/well (72 h) and 2000 cells/well (168 h); MO59K: 2000c/well (72 h) and 1000 cells/well (168 h)) and incubated at 37° C. and relevant C02 for 24 h hours. 20 μl per well of medium including serial dilutions of Compound 1 and/or Etoposide or Cisplatin were added to the culture plates and the incubation was continued further for 3 days (72 h) or 7 days (168 h) at 37° C. and relevant CO2. Compound 1 was pre-incubated for 30 min before Etoposide or Cisplatin were added.
(§3) Cells were plated in 200 μl volume per well (FaDu: 1000 cells/well (168 h); NCI-H460 3000 cells/well (72 h) and 1000 cells/well (168 h); MO59J: 5000 cells/well (72 h) and 2000 cells/well (168 h); MO59K: 2000c/well (72 h) and 1000 cells/well (168 h)). After 24 h incubation at 37° C. Compound 1, Etoposide or Cisplatin were dispensed by using the Digital HP Dispenser D300 (and the included dispensing software). Plates were further incubated for 3 days (72 h) or 7 days (168 h) at 37° C. and relevant CO2.
(§4) At the end of the compound incubation period 20 μl AlamarBlue reagent was added per well and the 96-well plates were incubated further up to seven hours. Absorption was determined at 540 nm by using Tecan Reader Connect and Magelan 7.
(§5) 0% effect=cells treated with DMSO; −100% effect=no cells

FaDu = experiment: AlamarBlue viability assay; assay type: cell-based, human
Method: as §1, §2, §3, §4, §5

MO59J (DNA-PK deficient) = experiment: AlamarBlue viability assay; assay type: cell-based, human; settings: compound incubation for 168 h
Method: as §1, §2, §3, §4, §5

[1] = system: FaDu (H&N, squamous) xenograft; assay type: in vivo
Source text: The models were chosen from different cancer indications (colon, lung, head and neck, pancreatic), and histological subtypes (adeno, squamous, large cell). […]
The resulting Kaplan-Meier plots were compared by the log-rank test.

SKNSH = experiment: SRB growth inhibition, 93 cell lines panel; settings: Homo sapiens, SK-N-SH, read-out: GI50 of etoposide (±Compound 1)
THP-1 = experiment: SRB growth inhibition, 93 cell lines panel; assay type: cell-based; settings: Homo sapiens; THP-1, hematological; read-out: GI50 of etoposide (±Compound 1)
Method: (§6) 90 μl of cells, after a 48-hour pre-growth period, were treated by mixing with 10 μl of the compound-containing media (resulting in a final DMSO concentration of 0.1%).
(§7) This is the drug concentration causing a 50% reduction compared to the net protein increase in control cells during the drug incubation period. In other words, G150 is IC50 corrected for time zero. […] TGI was calculated from Ti=Tz. […] It was calculated as 100×[(Ti−Tz)/Tz]=−50.

MHHES1 = experiment: SRB growth inhibition, 93 cell lines panel; assay type: cell-based; settings: Homo sapiens, MHH-ES-1; MHHES1, bone; read-out: GI50 of etoposide (±Compound 1)
Method: as §6, §7

MDAMB468 = experiment: SRB growth inhibition, 93 cell lines panel; assay type: cell-based; settings: Homo sapiens, MDA-MB-468; MDAMB468, breast; read-out: GI50 of etoposide (±Compound 1)
Method: as §6, §7

TE671 = experiment: SRB growth inhibition, 93 cell lines panel; assay type: cell-based; settings: Homo sapiens, TE-671; TE671, muscle; read-out: GI50 of etoposide (±Compound 1)
Method: as §6, §7

EJ28 = experiment: SRB growth inhibition, 93 cell lines panel; assay type: cell-based; settings: Homo sapiens, EJ-28; EJ28, bladder; read-out: GI50 of etoposide (±Compound 1)
Method: as §6, §7

MDAMB231 = experiment: SRB growth inhibition, 93 cell lines panel; assay type: cell-based; settings: Homo sapiens, MDA-MB-231; MDAMB231, breast; read-out: GI50 of etoposide (±Compound 1)
Method: as §6, §7

786O = experiment: SRB growth inhibition, 93 cell lines panel; assay type: cell-based; settings: Homo sapiens, 786-0, kidney, read-out: GI50 of etoposide (±Compound 1)
Method: as §6, §7

COLO678 [2] = experiment: SRB growth inhibition, 93 cell lines panel; assay type: cell-based; settings: Homo sapiens, COLO-678; COLO678, colon; read-out: GI50 of etoposide (±Compound 1)
Method: as §6, §7

SNB75 = experiment: SRB growth inhibition, 93 cell lines panel; settings: Homo sapiens, SNB-75, read-out: GI50 of etoposide (±Compound 1)
COLO678 [3] = experiment: Single agent activity, panel of 81 cancer cell lines plus PBMC; assay type: cell-based; settings: Homo sapiens, COLO-678
panel of 93 cell lines = experiment: SRB growth inhibition, 93 cell lines panel (summary); assay type: cell-based
Method: as §6, §7
The * or ** mark the lowest or highest tested concentrations. […] Both uM and μM stand for micromolar.

1587MG = experiment: SRB growth inhibition, 93 cell lines panel; settings: read-out: GI50 of etoposide (±Compound 1)
T24 = experiment: cells; settings: Homo sapiens, T-24, read-out: GI50 of etoposide (±Compound 1)

SMILES: COc1ccc([C@@H](O)c2cc(-c3ncnc4cc(N5CCOCC5)ccc34)c(F)cc2Cl)nn1 [Compound 1, (S)-[2-chloro-4-fluoro-5-(7-morpholin-4-yl-quinazolin-4-yl)-phenyl]-(6-methoxy-pyridazin-3-yl)-methanol]
- combination effect with cisplatin on viability (NCI-H460): No significant combination effect
- inhibition of viability, combination with etoposide (NCI-H460): enhanced inhibition of viability
- inhibition of viability, combination with etoposide (FaDu): enhanced inhibition of viability
- combination effect with Etoposide on viability (MO59J (DNA-PK deficient)): no such combination effect
- Enhancement Ratio [combi/IR only] ([1]; IR 10 Gy (5 x 2 Gy) + Compound 1 150 mg/kg po): 2.1
- median time to TV400% Combi ([1]; IR 10 Gy (5 x 2 Gy) + Compound 1 150 mg/kg po 10 min prior to each fraction): 46 days
- tumor response ([1]; daily 4 Gy (20 Gy total), 100 mg/kg, 92 day observation period): complete response
- Enhancement Ratio [combi/IR only] ([1]; total IR 10 Gy, 25 mg/kg po): 1.4
- median time to TV400% Combi ([1]; total IR 10 Gy, 25 mg/kg po): 29.5 days
- Enhancement Ratio [combi/IR only] ([1]; total IR 10 Gy, 100 mg/kg po): 1.9
- median time to TV400% Combi ([1]; total IR 10 Gy, 100 mg/kg po): 40 days
- median time to TV400% Combi ([1]; total IR 10 Gy, 300 mg/kg po): >63 days
- CR (complete response) ([1]; total IR 10 Gy, 300 mg/kg po, d 63): 60% CR
- Enhancement Ratio [combi/IR only] ([1]; total IR 20 Gy, 5 mg/kg po): 0.9
- median time to TV400% Combi ([1]; total IR 20 Gy, 5 mg/kg po): 43 days
- Enhancement Ratio [combi/IR only] ([1]; total IR 20 Gy, 10 mg/kg po): 1.13
- median time to TV400% Combi ([1]; total IR 20 Gy, 10 mg/kg po): 56.5 days
- median time to TV400% Combi ([1]; total IR 20 Gy, 100 mg/kg po): >94 days
- CR (complete response) ([1]; total IR 20 Gy, 100 mg/kg po, d 94): 100% CR
- Enhancement Ratio [combi/IR only] ([1]; total IR 30 Gy (6 Gy daily), 10 mg/kg po, 10 mg/kg): 2 and 1.9
- Enhancement Ratio [combi/IR only] ([1]; total IR 30 Gy, 5 mg/kg po): 1.4
- median time to TV400% Combi ([1]; total IR 30 Gy, 5 mg/kg po): 69 days
- median time to TV400% Combi ([1]; total IR 30 Gy, 10 mg/kg po): 94 days
- tolerability ([1]; total IR 30 Gy, 100 mg/kg po): not tolerated

- GI50 (SKNSH): 0.265 µM
- GI50 (THP-1): 0.11 µM
- GI50 (MDAMB468): 1.17 µM
- GI50 (MDAMB231): 1.94 µM
- GI50 (COLO678 [2]): 10.8 µM
- GI50 (COLO678 [3]): > 10 µM
- GI50 (T24): 2.53 µM
SMILES: COc1cc([C@@H]2c3cc4c(cc3[C@@H](O[C@@H]3O[C@@H]5CO[C@@H](C)O[C@H]5[C@H](O)[C@H]3O)[C@H]3COC(=O)[C@H]23)OCO4)cc(OC)c1O [Etoposide]
- GI50 (MHHES1): 0.227 µM
- GI50 (TE671): 1.15 µM
- GI50 (EJ28): 0.44 µM
- GI50 (786O): 0.928 µM
- GI50 (SNB75): 3.79 µM
- GI50 (panel of 93 cell lines; read-out: Average GI50): 1.7 µM
- GI50 (panel of 93 cell lines; read-out: Median GI50): 0.9 µM
- GI50 (panel of 93 cell lines; read-out: Most resistant cell line (GI50)): > 10 µM
- GI50 (panel of 93 cell lines; read-out: Most sensitive cell line (GI50)): 0.038 µM
- GI50 (1587MG): 2.4 µM
